Measured values published in patent US20030008913A1, “Derivatives of 2,2-dimethyl 3(2-fluoro vinyl) cyclopropane carboxylic acid, their preparation process and their use as pesticides” (priority 1997, published 2003).

Tested on: Blattela
Test: Knockdown-effect against Blattela in a windtunnel (comparative example)
Assay type: in vivo
Conditions: Rate 0.003% w/v in 80% OPD 120 acetone mixture
Protocol: The knockdown-effect at 30 seconds and 2 minutes of the compounds of Examples 14, 27, 43 and lmiprothrin, a commercially used pyrethroid, against Blattela was assessed.
The tests were carried out in a windtunnel. The active ingredient was diluted to 0.003% w/v in an 80% OPD 120 acetone mixture. Controls (i.e., sprayed with the carrier liquid alone) were inserted at the beginning of the test, and twice at the end.

C#CCN1CC(=O)N(COC(=O)[C@@H]2C(C=C(C)C)C2(C)C)C1=O (mixture of isomers) [Imiprothrin]
knockdown-effect at 30 sec. (30 sec.): 0%
knockdown-effect at 2 min (2 min): 10%
